Reference: PMC6868087, “Exploiting Curcumin Synergy With Natural Products Using Quantitative Analysis of Dose–Effect Relationships in an Experimental In Vitro Model of Osteoarthritis” (Frontiers in Pharmacology, 2019)
pIC50: −log10 of the molar value. Read-outs that look alike come from different tables or passages of the source.

Key:
STAT3 mRNA expression = STAT3 mRNA expression by RTqPCR in LPS-stimulated chondrocytes; assay type: cell-based, human; details: IC50 doses
Procedure: (§1) Human articular chondrocytes (ScienCell, CA, USA) were cultured in the specific Chondrocyte Medium (Cat. 4651; ScienCell, CA, USA) supplemented with 1% antibiotic mixture, in 5% CO2 humidified incubator at 37°C. The medium was renewed every 2 days and confluent chondrocytes were trypsinized, subdivided, and re-plated. In these experiments chondrocytes from passage 3 to 7 were used. Chondrocytes were cultured in six well culture plates at a density of 2.5 × 10^5 cells/well. Sixteen hours after seeding, a set of plates were treated with LPS (2 μg/ml; Escherichia coli serotype 055:B5; […] Total RNA was isolated from human chondrocytes for RTqPCR analysis using Trizol Reagent Kit (Life Technologies, Monza, Italy). […] The amplified PCR products were quantified by measuring the calculated cycle thresholds (CT) of targets and β-actin mRNA. The amounts of specific mRNA in samples were calculated using the 2^-ΔΔCT method. The mean value of investigated mRNA levels in LPS or IL-1β-stimulated chondrocytes was chosen as the calibrator, and the results are expressed as % of reduction compared to LPS or IL-1β controls. The IC50 value was calculated by fitting the progress curves to the four-parameter IC50 equation using GraphPad prism software version 5.03 (Graphpad software, CA, USA). […]

COL2A1 mRNA expression = experiment: COL2A1 (type II collagen) mRNA expression by RTqPCR in chondrocytes stimulated with LPS or IL-1β; assay type: cell-based, human; details: IC50 doses
Procedure: as §1

NF-κB mRNA expression = NF-κB mRNA expression by RTqPCR in LPS-stimulated chondrocytes; assay type: cell-based, human; details: IC50 doses
Procedure: as §1

[1] = matrix not stated; no reference given; cited from earlier work
IL-1β mRNA expression = IL-1β mRNA expression (RTqPCR) in LPS-stimulated human articular chondrocytes; Chou-Talalay median-effect and combination index analysis; assay type: cell-based; details: Chondrocyte, 4 h, LPS 2 µg/ml
Procedure: Human articular chondrocytes (ScienCell, CA, USA) were cultured in the specific Chondrocyte Medium (Cat. 4651; ScienCell, CA, USA) supplemented with 1% antibiotic mixture, in 5% CO2 humidified incubator at 37°C. The medium was renewed every 2 days and confluent chondrocytes were trypsinized, subdivided, and re-plated. In these experiments chondrocytes from passage 3 to 7 were used. Chondrocytes were cultured in six well culture plates at a density of 2.5 × 10^5 cells/well. Sixteen hours after seeding, a set of plates were treated with LPS (2 µg/ml; Escherichia coli serotype 055:B5; […] Total RNA was isolated from human chondrocytes for RTqPCR analysis using Trizol Reagent Kit (Life Technologies, Monza, Italy). […] RTqPCR was performed on both targets and endogenous control using SYBR Premix DimerEraser (Takara, Japan) and QuantStudio 6 Flex Real-Time PCR System (Applied Biosystems, CA, USA). The amplified PCR products were quantified by measuring the calculated cycle thresholds (CT) of targets and β-actin mRNA. The amounts of specific mRNA in samples were calculated using the 2^-ΔΔCT method. The mean value of investigated mRNA levels in LPS or IL-1β-stimulated chondrocytes was chosen as the calibrator, and the results are expressed as % of reduction compared to LPS or IL-1β controls. The IC50 value was calculated by fitting the progress curves to the four-parameter IC50 equation using GraphPad prism software version 5.03 (Graphpad software, CA, USA). Chou and Talalay multiple drug effect analysis was performed and it is based on the median-effect principle ([Chou and Talalay, 1984]; [Chou, 2006]). The Median Effect Equation states that fa/fu = (D/Dm) m, where D is the dose, fa and fu are the affected and the unaffected fractions, respectively, of IL-1β mRNA expression levels, by the dose D; Dm is the dose required to produce the median effect (i.e., IC50), and m is the Hill-type coefficient signifying the sigmoidicity of the dose–effect curve. […] The CI was calculated as: CI=[(D)1/(D50)1]+[(D) 2/(D50)2 […] The CI index was calculated using Grafit software.

[2] = test system: Human articular chondrocytes; experiment: MTT assay, cell viability of chondrocytes; assay type: cell-based; details: IC50 concentrations, 24 h
Procedure: Human articular chondrocytes (ScienCell, CA, USA) were cultured in the specific Chondrocyte Medium (Cat. 4651; ScienCell, CA, USA) supplemented with 1% antibiotic mixture, in 5% CO2 humidified incubator at 37°C. The medium was renewed every 2 days and confluent chondrocytes were trypsinized, subdivided, and re-plated. In these experiments chondrocytes from passage 3 to 7 were used. Cell viability was evaluated by MTT assay. Chondrocytes were grown and then treated with IC50 doses when reached confluence. In particular, flavocoxid, curcumin, flavocoxid + curcumin, β-caryophyllene, and β-caryophyllene + curcumin were tested in a 96-well plate at a density of 8 × 10^4 cells/well for 24 h to evaluate the cytotoxic effect. The tetrazolium dye MTT 3-(4,5-dimethylthiazol-2-yl)-2,5-diphenyltetrazolium bromide (Sigma Aldrich, Milan, Italy) was dissolved in sterile filtered PBS, and 20 µl of the mixture were added into each well 5 h before the end of the 24 h of incubation. Medium was removed and the insoluble formazan crystals were dissolved with dimethyl sulfoxide (DMSO; 200 µl/well) following 5 h. The difference between the values obtained at 540 and 620 nm of absorbance was used to calculate the average of replicates and to evaluate cytotoxicity. Results were expressed as % of cell viability compared to untreated cells and reported as means and SD.

[3] = curcumin/β-caryophyllene experiment, combination molar ratio 3.6:1, read-out: IC50, reduction of IL-1β mRNA

What does the source list for `COc1cc(/C=C/C(=O)CC(=O)/C=C/c2ccc(O)c(OC)c2)ccc1O` [curcumin]?
STAT3 mRNA expression (STAT3 mRNA expression): reduced; COL2A1 (type II collagen) mRNA expression (COL2A1 mRNA expression): partially able to restore the mRNA control levels; NF-κB mRNA expression (NF-κB mRNA expression): reduced; half-life [1]: about 3 h; pIC50 (IL-1β mRNA expression; curcumin/flavocoxid experiment, combination molar ratio 7.3:1, read-out: IC50, reduction of IL-1β mRNA): 4.85; pIC50 (IL-1β mRNA expression; [3]): 4.87; Cell viability (cytotoxic effect), MTT [2]: did not affect chondrocytes viability

With `C=C1CC/C=C(\C)CC[C@@H]2[C@@H]1CC2(C)C` [β-caryophyllene] as the compound, how does the “STAT3 mRNA expression” value (STAT3 mRNA expression) read?
Its value is “reduced”.

And the “COL2A1 (type II collagen) mRNA expression” value (COL2A1 mRNA expression)?
The value was “partially able to restore the mRNA control levels”.

And the “NF-κB mRNA expression” value (NF-κB mRNA expression)?
Its value is “reduced”.

What about the pIC50 (IL-1β mRNA expression; [3]) of the same compound?
Its pIC50 is 4.31.

What about the “Cell viability (cytotoxic effect), MTT” value [2] of the same compound?
Its value is “did not affect chondrocytes viability”.
